Experimental data reported in article PMC8234620, “An Integrated Peptidomics and In Silico Approach to Identify Novel Anti-Diabetic Peptides in Parmigiano-Reggiano Cheese” (Biology, 2021).

Columns and labels:
[1] = biological target: T1, porcine pancreatic α-amylase (Sus scrofa, UniProt P00690); test: α-Amylase assay; format: biochemical; conditions: synthetic peptides; n.a. = not active
T1 sequence (P00690 16-511): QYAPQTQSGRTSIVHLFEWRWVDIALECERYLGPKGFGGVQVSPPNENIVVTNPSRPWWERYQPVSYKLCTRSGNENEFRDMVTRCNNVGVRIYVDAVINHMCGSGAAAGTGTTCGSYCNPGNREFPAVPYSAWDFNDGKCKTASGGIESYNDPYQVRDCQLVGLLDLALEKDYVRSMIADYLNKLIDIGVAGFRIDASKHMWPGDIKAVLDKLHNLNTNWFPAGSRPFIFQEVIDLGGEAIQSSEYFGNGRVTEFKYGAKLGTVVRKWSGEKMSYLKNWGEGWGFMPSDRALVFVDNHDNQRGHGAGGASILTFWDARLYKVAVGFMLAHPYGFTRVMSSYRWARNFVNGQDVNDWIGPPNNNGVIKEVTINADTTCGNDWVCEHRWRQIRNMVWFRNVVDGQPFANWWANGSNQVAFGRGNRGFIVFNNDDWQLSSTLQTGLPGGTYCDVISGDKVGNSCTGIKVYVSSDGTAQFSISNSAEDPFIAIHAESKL
Protocol: α-Amylase assay was performed in accordance with McDougall et al. adapted to a microplate reader. For the reaction, 5 μL of 2 U/mL of porcine pancreatic α-amylase (dissolved in sodium phosphate buffer 20 mmol/L pH 6.9 containing 6.7 mmol/L NaCl) were mixed with 45 μL of sodium phosphate buffer or different concentrations of water-soluble low-molecular weight peptide extracts. The mixture was incubated at 37 °C for 20 min before adding 50 μL of 1% starch solution. The reaction was carried out at 37 °C for 10 min and stopped by the addition of dinitrosalicylic acid solution, followed by 15 min boiling in a water bath. After the addition of 450 μL of water, 200 μL of solution was transferred in a 96-well plate and the absorbance was read at 540 nm. Results were expressed as IC50, namely the peptides concentration (expressed in mg/mL) able to inhibit the enzymatic activity by 50%. The IC50 values were calculated by plotting the peptide concentration (base-10 logarithm) as a function of the percentage of enzyme inhibition.
(§1) Selected peptides were then synthesized (Bio-Fab Research, Rome, Italy) and tested for their inhibitory activity against DPP-IV, α-glucosidase, and α-amylase. The assays were carried out as reported in Section 2.3. The results were expressed as IC50 values.

yeast α-glucosidase = yeast α-glucosidase (Saccharomyces cerevisiae, UniProt P53341); test: α-Glucosidase assay; format: biochemical; conditions: synthetic peptides; n.a. = not active
Sequence of yeast α-glucosidase (P53341 whole entry): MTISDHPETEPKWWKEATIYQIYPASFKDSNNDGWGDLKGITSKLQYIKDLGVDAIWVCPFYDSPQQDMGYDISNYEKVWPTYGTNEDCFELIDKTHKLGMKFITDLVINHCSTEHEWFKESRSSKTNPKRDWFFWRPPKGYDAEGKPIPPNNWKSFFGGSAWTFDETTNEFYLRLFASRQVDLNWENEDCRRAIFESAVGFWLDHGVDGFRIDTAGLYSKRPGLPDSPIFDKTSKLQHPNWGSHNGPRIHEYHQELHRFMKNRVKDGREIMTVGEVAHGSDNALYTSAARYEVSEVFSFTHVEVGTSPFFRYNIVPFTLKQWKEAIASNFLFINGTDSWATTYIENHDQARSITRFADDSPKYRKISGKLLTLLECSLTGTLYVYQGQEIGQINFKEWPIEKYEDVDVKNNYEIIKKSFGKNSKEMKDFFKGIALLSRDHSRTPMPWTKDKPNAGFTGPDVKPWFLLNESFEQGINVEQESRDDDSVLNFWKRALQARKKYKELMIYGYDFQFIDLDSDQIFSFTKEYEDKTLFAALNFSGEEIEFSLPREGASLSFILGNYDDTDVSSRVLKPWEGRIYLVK
Protocol: α-Glucosidase assay was performed as reported in Bellesia et al., adapted to a microplate reader. The reaction was performed by mixing 66.7 μL of potassium phosphate buffer (67 mmol/L, pH 6.8), 3.3 μL of glutathione 3 mmol/L, 20 μL of different concentrations of water-soluble low-molecular weight peptide extracts, and 5 μL of yeast α-glucosidase 0.2 U/mL. After 20 min of incubation at 37 °C, the reaction was started by the addition of 5 μL of p-nitrophenyl-glucose 5 mmol/L. After a further 20 min of incubation at 37 °C, the reaction was stopped by the addition of 150 μL of Na2CO3 100 mmol/L. The amount of released p-nitrophenol was determined by reading at 405 nm with a microplate reader. Results were expressed as IC50 as reported above.
as §1

rat intestinal DPP-IV = biological target: T2, rat intestinal DPP-IV (Rattus norvegicus, UniProt P14740); test: Dipeptidyl peptidase IV (DPP-IV) assay; format: biochemical; conditions: synthetic peptides
T2 construct: 10 μL of rat intestinal DPP-IV (0.1 U/mL in the assay); from tissue; host or cells: rat intestine
T2 sequence (P14740 whole entry): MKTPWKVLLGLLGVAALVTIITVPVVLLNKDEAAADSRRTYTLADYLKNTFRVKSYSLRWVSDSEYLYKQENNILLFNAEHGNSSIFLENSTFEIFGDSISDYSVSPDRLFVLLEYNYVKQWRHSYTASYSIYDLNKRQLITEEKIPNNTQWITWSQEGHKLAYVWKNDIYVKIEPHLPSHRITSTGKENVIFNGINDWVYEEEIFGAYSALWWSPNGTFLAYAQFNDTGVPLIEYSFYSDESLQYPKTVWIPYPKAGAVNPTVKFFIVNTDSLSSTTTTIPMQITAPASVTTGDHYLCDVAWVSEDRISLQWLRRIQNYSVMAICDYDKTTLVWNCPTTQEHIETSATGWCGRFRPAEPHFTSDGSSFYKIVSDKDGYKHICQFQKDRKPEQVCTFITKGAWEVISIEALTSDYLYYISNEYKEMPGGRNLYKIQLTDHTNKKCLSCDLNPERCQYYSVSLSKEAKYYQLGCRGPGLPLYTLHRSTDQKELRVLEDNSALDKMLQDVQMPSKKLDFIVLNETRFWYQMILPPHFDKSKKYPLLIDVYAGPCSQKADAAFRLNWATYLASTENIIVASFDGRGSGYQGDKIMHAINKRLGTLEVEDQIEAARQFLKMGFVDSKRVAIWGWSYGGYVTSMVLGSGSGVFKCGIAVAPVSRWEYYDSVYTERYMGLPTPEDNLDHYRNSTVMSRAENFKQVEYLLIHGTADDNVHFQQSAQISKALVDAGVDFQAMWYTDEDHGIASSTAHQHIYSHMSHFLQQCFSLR
Protocol: DPP-IV assay was performed as described in Tagliazucchi et al.. Briefly, in a 96-well plate, 10 μL of rat intestinal DPP-IV (0.1 U/mL in the assay) were mixed with 145 μL of Tris-HCl buffer (pH 7.0; 0.1 mol/L) and 40 μL of different concentrations of water-soluble low-molecular weight peptide extracts. After 20 min of incubation at 37 °C, the reaction was started by the addition of 5 μL of glycine-proline-p-nitroanilide (6.4 mmol/L). The amount of released p-nitroanilide was determined after 20 min of incubation at 37 °C by reading at 405 nm in a microplate reader. Results were expressed as IC50 as reported above.
as §1

[2] = test system: angiotensin converting enzyme; conditions: cited from earlier work
[3] = parameters: method as in BIOPEP database and Milk Bioactive Peptides Database; conditions: ref BIOPEP database and Milk Bioactive Peptides Database; cited from earlier work
[4] = parameters: method as in BIOPEP database and Milk Bioactive Peptides Database; conditions: ref BIOPEP database and Milk Bioactive Peptides Database; cited from earlier work; remark: listed apart in the source
[5] = parameters: method as in PMID 27572703, PMID 33337010; conditions: mild hypertensive subjects; ref [47],[58]; cited from earlier work
[6] = parameters: method as in BIOPEP database and Milk Bioactive Peptides Database; conditions: ref BIOPEP database and Milk Bioactive Peptides Database; cited from earlier work; remark: listed apart in the source
[7] = parameters: method as in BIOPEP database and Milk Bioactive Peptides Database; conditions: ref BIOPEP database and Milk Bioactive Peptides Database; cited from earlier work; remark: listed apart in the source
[8] = test system: Staphylococcus aureus, Streptococcus pyogenes, and Listeria monocytogenes; parameters: method as in PMID 8603791; conditions: mice; ref [50]; cited from earlier work

CC[C@H](C)[C@H](N)C(=O)N1CCC[C@H]1C(=O)N1CCC[C@H]1C(=O)O [IPP]
IC50 [1]: 763 ± 18.9 µM
IC50 (yeast α-glucosidase): 765 ± 15 µM
IC50 (rat intestinal DPP-IV): 169 ± 2.2 µM

VPP
Bioactivity: ACE-inhibition ([2]; ref BIOPEP database and Milk Bioactive Peptides Database): ACE-inhibition
IC50 values against ACE ([2]; ref [47],[48],[49]): very low
Bioactivity: Antioxidant [3]: Antioxidant
Bioactivity: Anti-inflammatory [4]: Anti-inflammatory
in vivo anti-hypertensive effect [5]: anti-hypertensive effect

RPKHPIKHQGLPQEVLNENLLRF [αS1-casein f(1–23), anti-microbial peptide isracidin]
Bioactivity: Anti-microbial [6]: Anti-microbial
Bioactivity: Immunomodulation [7]: Immunomodulation
in vivo anti-microbial effect [8]: protecting mice
